“Also recorded” adds a separate entry of the source.
What was measured:
[1] = system: Hes1, a Notch pathway target gene; assay: Hes1 protein expression in GBM neurosphere cells; format: cell-based
Description: (§1) (A, B) CD133 is expressed in GBM neurosphere line HSR-GBM1a. (C) The total cell number was decreased upon GSI-18 treatment for 48 h in this line and in the subclones of the line. […] (E) Protein expression of Hes1, a Notch pathway target gene, was reduced upon GSI-18 treatment in GBM neurosphere cells.

[2] = system: Panc-1 pancreatic cancer cell line; assay: Tumorigenicity of pre-treated cells injected subcutaneously in athymic mice; format: in vivo; details: five weeks post-injection; no further drug administered; five mice per arm
Description: (Top) Experimental scheme illustrating pre-treatment of pancreatic cancer cell lines with GSI-18, prior to plating for soft agar assays and subcutaneous injection in athymic mice. Treatment for 24 hours with GSI-18 or vehicle is followed by recovery in full serum for a further 24 hours minus the drug. Equal numbers of viable cells from the control and treated groups are then plated for colony assays in soft agar, or injected in nude mice. Of note, during the in vitro or in vivo assays, no further drug is administered. […] The dosage required for significant inhibition of clonogenicity varies between 2 μM (Capan-1) to 5 μM (E3LZ10.7). Bar graphs represent colony counts at two weeks, with mean and standard deviations calculated from triplicate experiments. (Left) Pre-treatment with GSI-18 inhibits tumorigenicity of Panc-1 pancreatic cancer cell line in athymic mice. […] Error bars represent standard deviation of five mice per arm.

Panc-1 = assay: Colony formation in soft agar (clonogenicity); format: cell-based, human; details: colony counts at two weeks
Excerpt: Specificity of the RNA interference is confirmed by downregulation of Notch1 transcript levels with the specific siRA, but not with the scrambled controls. […] Bar graphs represent colony counts at two weeks, with mean and standard deviations calculated from triplicate experiments.
Bar graphs represent colony counts at two weeks, with mean and standard deviations calculated from triplicate experiments.

Akt = Akt phosphorylation and Caspase3 cleavage in GBM neurosphere cells; format: cell-based
Description: (A) Increase of cleaved Caspase 3 and loss of Akt phosphorylation is induced by 0.4 uMor higher levels of GSI-18, while overall levels of Akt and GAPDH are unchanged in DAOY medulloblastoma cells. (B) Cell death in 2 uM GSI-18 is reduced in a representative subclone of DAOY expressing activated Akt as compare to vector transfected cells. (C) Loss of Akt phosphorylation and activation of Caspase3 cleavage is induced by 2 μM or higher levels of GSI-18, while overall levels of Akt and GAPDH are unchanged in GBM neurosphere cells.
(§2) It has been shown that the Notch signaling pathway regulates normal stem cells in the Central Neural System (CNS), and that GBMs contain cancer stem cells (CSCs) with higher Notch activity (Cancer Research, 64:7011-21, 2004; Cancer Cell, 9:391-403, 2006). However, it has not been known if Notch pathway blockade could target CSCs in GBM. […] In the present study, we used GBM neurospheres to examine the effects of Notch pathway blockade in GBM. […] Furthermore, overexpression of an active form of Notch2 (NICD2) increases tumor growth in vitro.

[3] = system: panel of 10 human pancreatic cancer cell lines; assay: MTT growth assay; format: cell-based; details: 96 hours; dosages of 2, 5, and 10 μM
DAOY [4] = assay: Double immunolabeling nestin / Ki67 (proliferation); format: cell-based; details: 2 μM, 48 hours
DAOY [5] = assay: Apoptosis by cleaved caspase 3 immunofluorescence in nestin-positive and nestin-negative cells; format: cell-based; details: 2 μM, 48 hours
[6] = Behavioral or physical changes in treated animals; format: in vivo, mice; details: 0.5 mg i.p. for five consecutive days
Description: As a test of the requirement for ongoing Notch activity during tumor engraftment, animals were treated with GSI-18 after subcutaneously injecting DAOY and DAOY:NICD2 cells into their left and right flanks. A treatment group of four mice received intraperitoneal injections containing 0.5 mg GSI-18 in DMSO for five consecutive days, beginning on the day of xenograft initiation, while the control group was treated with vehicle alone.

[7] = system: GBM neurosphere line HSR-GBM1a; assay: CD133 expression in GBM neurosphere culture; format: cell-based; details: 2 μM
Description: as §1, §2

DAOY:NICD2 = assay: Viable cell mass (CellTITER assay); format: cell-based; details: 0.4 μM and 2 μM
Description: (§3) The fact that cultures grew 2-fold or more during the same time period that side population was essentially ablated by Notch pathway blockade provides additional support for the notion that medulloblatoma CSC are especially vulnerable to Notch signaling inhibition.
(§4) The DAOY, PFSK, D283 and D425 Med cell lines were obtained from the American Type Culture Collection. The low-passage MB line MB2 was derived from a tumor resected at Johns Hopkins Hospital. For treatment studies, cell were plated and allowed to grow overnight in MEM (Invitrogen, Carlsbad, Calif.) containing 10% FBS, then media was replaced the next morning with low serum (0.5% FBS) MEM containing GSI dissolved in DMSO. RNA and protein extractions, and all cell-based assays, were performed 48 hours after drug application unless otherwise noted. All experiments with error bars were performed in triplicate and shown as mean values with standard error unless otherwise noted. Cell mass was measured using CellTITER assays according to the manufacturer's instructions (Promega, Madison, Wis.). Cell number and viability were assessed using the Guava PCA and Viacount reagent according to instructions (Guava Technologies, Heyward, Calif.). Soft agar assays were performed as previously described (15) and scored either manually after 4 weeks or using as automated reader after 6 weeks. The constitutively active Akt stable cell line was made by transfecting DAOY cells with myristolated Akt (pCB6-IMy-Akt-HA) or control (pCB6+) plasmids (kind gifts from Susan J. Baker) and selecting and maintaining clones in 0.8 mg/ml G418. Soft agar assays were performed as previously described, with colonies counted using an automated reader (15).

MB cultures = assay: Viable cell mass (CellTITER assay); format: cell-based
Description: as §3, §4

Which “protein expression of Hes1” value [1] does the source give for `O=S(=O)(NC1C2CCC1Cc1ccccc1C2)c1cccs1` (stereo not drawn) [GSI-18, [11-endo]-N-(5,6,7,8,9,10-hexahydro-6,9-methanobenzo[α][8]annulen-11-yl)-thiophene-2-sulfonamide] here?
Its value is “reduced”.

And the “tumor volumes from pre-treated cells” value [2]?
Its value is “minimal tumor volumes”.

What about the “clonogenicity, colony formation in soft agar” value (Panc-1) of the same compound?
Its value is “significant inhibition of clonogencity”.

And the “levels inducing loss of Akt phosphorylation and activation of Caspase3 cleavage” value (Akt; GBM neurosphere cells)?
The value was at least 2 µM.

And the “expression of cleaved caspase 3 and phosphorylated Akt” value (Akt; GBM neurosphere lines)?
The value was “Increased expression of cleaved caspase 3 and reduced expression of phosphorelated Akt”.

And the “in vitro growth measured by MTT assays” value [3]?
Its value is “modest to minimal effects on growth”.

What about the “fraction of Ki67 positive cells in nestin-negative subpopulation” value (DAOY [4]) of the same compound?
The value was “changed only slightly”.

And the “proliferation (Ki67-positive cells) in nestin-positive subpopulation” value (DAOY [4])?
Its value is “significant reduction in the proliferation”.

What about the “increase of apoptotic rate in nestin-positive cells (putative CSC)” value (DAOY [5]) of the same compound?
Its value is “over 10 fold”.

And the “behavioral or physical changes” value [6]?
The value was “No behavioral or physical changes were noted”.

And the “CD133 expression in the whole culture” value [7]?
Its value is “significantly reduced; also recorded: reduces expression of CD133”.

What about the “growth (viable cell mass) under NICD2 expression” value (DAOY:NICD2) of the same compound?
The value was “rescued growth”.

What about the “short-term increases in viable cell mass” value (MB cultures; 0 μM, 0.4 μM, and 2 μM) of the same compound?
Its value is “reduced in a dose-dependent fashion”.

What about the “growth of cultures during Notch pathway blockade” value (MB cultures; same time period in which side population was ablated) of the same compound?
The value was at least 2 fold.

From patent US20140227173A1, “CANCER TREATMENT WITH GAMMA-SECRETASE INHIBITORS” (The Johns Hopkins University, priority 2006, published 2014)
